Data set [1] deals with rat aortic tissues. In words: cGMP levels in aortic rings of old rats incubated with sildenafil and ABH (cGMP EIA). In kind it is cell-based. Conditions: ABH 0 nM. As for the experimental part:
The source of tissue was old (22 to 24 months) male Fischer 344 rats purchased from National Institute for Aging (NIA). The rats were anesthetized in an isoflurane chamber and euthanized. The entire length of the aorta (thoracic, arch, abdominal) were dissected out and cleaned free of connective tissue. These aorta were then sectioned into ˜3 mm long rings. Samples were collected from 2 rats and pooled. […] Rings were incubated in varying concentrations of sildenafil (0-2000 nM) and ABH (0-500 nM) prepared in 200 μL Krebs buffer for 10 min at 37° C. The rings were then snap frozen in liquid nitrogen following treatment. The next day, samples were homogenized in 200 μL 6% TCA buffer (prepared by adding TCA to DI water) at 4° C. for extraction of cyclic nucleotides. The samples were then centrifuged at 12,000 rpm for 5 min at 4° C. Protein pellets were re-dissolved in PBS to determine protein concentration, and supernatant was reserved for cGMP detection. […] ABH (MW 211.45): A stock solution of ABH at a concentration of 100 mM was prepared by dissolving 21.1 mg of ABH into 1 ml Krebs solution. This was used to prepare 5 ml of a 1 mM stock. 200 μL of the 1 mM solution were dispensed into column 12 of a 96-well plate. Six 2× dilutions were prepared in the plate. 200 μL Krebs were dispensed in column 5 to get a concentration range of 0-1000 nM (2× of final concentration). Sildenafil (MW 474.5): A stock solution of sildenafil at a concentartion of 100 mM was prepared by dissolving 47.4 mg of sildenafil into 1 ml Krebs solution; 5 ml of 2 mM stock was prepared from this. Row A received 200 μL of Krebs buffer (0 mM sildenafil), mixed well, and adjusted to a final volume of 200 μL. Next, 200 μL of the 2 mM sildenafil stock was dispensed into row H of the 96 well plate already containing the ABH dilutions ([…]). Six 2× dilutions were prepared from this to get the final concentration ranges for the two drugs. cGMP levels were determined with a cGMP kit (Amersham cGMP Enzyme immunoassay Biotrak (EIA) System Cat #RPN226) and run in accordance with the manufacture's recommendations. The assay uses a competitive fluorescent immunoassay format to measure levels of cGMP. It combines the use of a peroxidase-labelled cGMP conjugate, a specific antiserum which can be immobilized on to pre-coated microplates, and a one-pot stabilized substrate solution. […] In the absence of cGMP most of the HRP conjugate is bound to the antibody and yields a high fluorescence. Increasing concentrations of cGMP competitively decreases the binding of the HRP conjugate, decreasing the measured fluorescence (HRP activity). […] The plate was then incubated for 2 hrs at room temperature with shaking after which it is washed and the fluorescent substrate is added. The plate was incubated for an additional 10 min and then read on a Molecular Devices Gemini EM plate reader set at Ex 530 nm, Em 590 nm (endpoint mode). The signal is reported to be stable for up to 24 hrs, but was generally read within 2 hrs. […] These values were calculated based on the resultant ratio of fluorescence reading of sample divided by fluorescense reading with no cGMP (pmols/mg). For each concentration combination of sildenafil and ABH administered to cells, absorbance (OD at 450 nm) was measured. From these values, the absorbance adjusted for non-specific binding (NSB) for each sample (OD-NSB(B)) was determined from the absorbance (B) divided by the absorbance without cGMP (Bo). Using this value and the standard curve for cGMP, the log (fmol) is found and, after adjusting for the quantity of protein, the pmols of cGMP/mg protein is calculated.

For data set [2], the system named is patients with PAH. Conditions: oral administration; cited from earlier work.
Data set [3] has as its system lambs with chemically induced PAH. The note with it: cited from earlier work.
The test system of data set [4] is hypoxia-induced pulmonary hypertension. Conditions: cited from earlier work.
For data set [5], the system named is patients with PAH. Conditions: three times daily; cited from earlier work.
The subject of data set [6] is old rat aortic segments. In words: NO production in aortic rings (slope of DAF fluorescence). The note with it: old/aged rat aorta. In kind it is cell-based. From the text:
ABH improves endothelial function by inhibiting arginase and consequently increasing NO production (by increasing L-arginine availability to eNOS) and decreasing levels of ROS (by preventing eNOS uncoupling). […] Aortic rings were dissected and pinned down, endothelial side up, on a silastic coated culture dish, and then exposed to either the NO-sensitive dye DAF, or the O2-sensitive dye DHE. Since the interaction of NO or ROS with its specific dye is cumulative, the rate of production of each species is proportional to the slope of the fluorescence emitted from the dye as measured using epifluorescence microscopy. […] SNP endothelial-independent NO donor was included as a control (Santhanam et al 2007).

The conditions of data set [7]: in vivo; cited from earlier work.
Data set [8] relates to arginase. The note with it: cited from earlier work.
The test system of data set [9] is arginase. Conditions: internal anal sphincter; cited from earlier work.
The test system of data set [10] is PDE1. The note with it: pulmonary vascular tissue; cited from earlier work.

Read-outs that look alike come from different tables or passages of the source.

On to `CCCc1nn(C)c2c(=O)[nH]c(-c3cc(S(=O)(=O)N4CCN(C)CC4)ccc3OCC)nc12` [sildenafil], for which the “Theoretical response T(x,y) based on an additive effect” value in [1] (sildenafil 31 nM) came out at 0.27 pmol/mg; in data set [1] (sildenafil 125 nM) it was 2.56 pmol/mg; in data set [1] (sildenafil 500 nM), 0.88 pmol/mg; in data set [1] (sildenafil 2000 nM), 0.80 pmol/mg. The “pmols of cGMP/mg protein produced P(x,y)” value was 0.27 pmols/mg in data set [1] (sildenafil 31 nM), 2.56 pmols/mg in data set [1] (sildenafil 125 nM), 0.88 pmols/mg in [1] (sildenafil 500 nM) and 0.80 pmols/mg in data set [1] (sildenafil 2000 nM). In addition, in [2], the pulmonary vasodilation result was “selective pulmonary vasodilation”. Besides, the “pulmonary vasodilator response to inhaled NO” value in data set [3] (aerosolized form, lambs with PAH) is reported as “augmented”. The hypoxia-induced pulmonary hypertension entry in [4] (mice lacking NOS3 (eNOS)) is listed as “little effect”; in data set [4] (mouse, in vivo) it was “substantially ablated”. Moreover, the WHO functional class result in data set [5] is reported as “improved”. For the same molecule, the “exercise capacity (6-minute walk test)” value in [5] is given as “improved”. Also, in data set [5], the pulmonary arterial pressure result is “decreased”. In [5], the pulmonary vascular resistance entry is recorded as “decreased”.

On to `N[C@@H](CSCCB(O)O)C(=O)O` [BEC, S-(2-Boronoethyl)-L-cysteine], for which the “NO production (slope of the DAF fluorescence)” value in data set [6] is “augments NO production”.

With `CCCOc1ccccc1-c1nc2nn[nH]c2c(=O)[nH]1` [Zaprinast], the “pulmonary vasodilation induced by inhaled NO” value in data set [3] (lambs with chemically induced PAH) is “potentiates and markedly prolongs”.

For the molecule `N=C(NO)NCC[C@H](N)C(=O)O` [nor-NOHA, N^ω-hydroxy-nor-L-arginine], the bioavailability entry in data set [7] is “poor bioavailability”. In addition, the “in vivo inhibition of serum arginase” value in data set [8] was “inhibition of serum arginase”.

Take `N=C(NO)NCCC[C@H](N)C(=O)O` [L-HO-Arg, Nω-hydroxy-L-arginine]: the “NANC relaxation suppressed by excess arginase” value in data set [9] was “restored”.

On to `CCOC(=O)C1=C[C@]2(CC)CCCN3CCc4c(n1c1ccccc41)[C@@H]32` [vinpocetine], for which, in [10], the NO-stimulated dilation entry was “enhances” and the “basal cGMP or cAMP” value was “little effect”.

The record behind these values is patent US20120065165A1, “COMPOSITIONS AND METHODS OF TREATING ENDOTHELIAL DISORDERS” (ARGINETIX, INC, priority 2008, published 2012).
